{
  "source": "patent US20060020036A1",
  "about": "“Methods and compositions to promote bone homestasis” (priority 2004, published 2006)",
  "key": {"[1]": {"system": "calvarial skull bones (hemicalvaria)", "assay": "Calvarial skull assay (bone organ culture)", "assay_type": "cell-based, CD1 mice", "experimental": "CD1 pups are harvested around birth from CD1 female mice (received from Janvier (Le Genest St Isle, France) when they were 11 days pregnant). Pups are decapitated and the calvarial skull is dissected and split into 2 hemicalvaria. Hemicalvaria are blotted using sterile gauze, weighed and cultured in 24 well plates (MEMalpha or BGJb-Fitton-Jackson medium containing 50 μg/ml L-ascorbic acid (Sigma, A-4034), 5 mM β-glycerophosphate (Sigma, G-9891) and Penicillin-Streptomycin (Invitrogen Cat # 15140-122)). Small molecules (ligands, agonists, antagonists) are tested in at least three-fold at a minimum of 3 concentrations. Each small molecule is added to the medium on day 0 and added again when refreshing the medium (every 2-3 days). Three to 16 days after the start of the experiment, skulls are weighed again after blotting them dry using sterile gauze. The weight difference is calculated, expressed as percent weight change and the mean and standard deviations (SD) are calculated for the triplicate measurements. Data are analyzed using the Student's t-test.\nThe formation of new osteoid is analyzed histologically as follows: hemicalvaria are fixed in 10% buffered formalin for at least 2 days, decalcified in 10% EDTA overnight, processed through graded alcohols and embedded in paraffin wax. Three to 10 μm sections are prepared of the calvaria and stained with hematoxylin and eosin (H&E). Healthy cells, dead cells, old and new bone, and collagen are identified by their distinctive morphology and colouring observed after H&E staining. The surfaces taken by these are measured stereologically (μm^2 readout) and termed Osteoblast area, Debris area, Native and New bone area, Collagen area and Total area (sum of the previous 5 areas), respectively. In addition, the thickness (μm readout) is measured at 8 positions, evenly spaced over the section.\nThe histological readout of the calvarial skull assay is developed using known osteogenic agents. Hemicalvaria were treated with recombinant human parathyroid hormone (rhPTH).\nT0901317 is added to the culture medium of the dissected hemicalvaria at the day of dissection at several doses (19.5, 78.1 and 313 nM), in fourfold. The concentration of the solvent (vehicle), DMSO, is fixed at a final concentration of 0.05%. The medium, containing T0901317 or vehicle control is refreshed every 2-3 days. Hemicalvaria are harvested 7 days after the initiation of the experiment and subjected to the histological analysis described above."}, "[2]": {"system": "RUNX2 (DN-RUNX2) in MPCs infected with Ad-NR1H3", "assay": "DN-RUNX2 assay (AP activity in MPCs)", "assay_type": "cell-based, human", "details": "Ad-NR1H3 in the presence of T0901317, Ad-DN-RUNX2 vs Ad-luciferase, 6 days post infection", "experimental": "MPCs are seeded at 1000 cells/well in a 384 well plate and infected the next day with adenoviruses encoding hCAR (MOI 250), Ad-BMP2 (MOIs 6000, 2000, 666) and one of Ad-DN-RUNX2 or Ad-luciferase (MOIs 2000 or 666). Alkaline phosphatase activity is read 6 days post infection.\nMPCs are seeded at 1000 cells/well in a 384 well plate and are infected the next day with adenoviruses encoding hCAR (MOI 250), Ad-BMP2, Ad-ESRRG, Ad-NR5A2, Ad-NR1H3 (MOIs 6000, 2000, 666) and one of Ad-DN-RUNX2 or Ad-luciferase (MOI 1000 or MOIs 2000 and 666) (see FIG. 19 (C)). Alkaline phosphatase activity is read 6 days post infection and raw data are analysed."}, "[3]": {"details": "19.5, 78.1 and 313 nM, 7 days, histology (H&E)"}},
  "note": "Entries after “also recorded” stand apart in the source; their conditions may differ.",
  "data": [
    {"smiles": "O=S(=O)(c1ccccc1)N(CC(F)(F)F)c1ccc(C(O)(C(F)(F)F)C(F)(F)F)cc1", "note": "[T0901317, N-(2,2,2-trifluoroethyl)-N-[4-[2,2,2-trifluoro-1-hydroxy-1-(trifluoromethyl)ethyl]phenyl]-benzenesulfonamide]", "values": [
      {"measurement": "dose-response activity towards areas of osteoblast", "setting": "[1]; 19.5, 78.1 and 313 nM, 7 days", "result": "Dose-response activity of the compound is observed"},
      {"measurement": "dose-response activity towards thickness", "setting": "[1]; 19.5, 78.1 and 313 nM, 7 days", "result": "Dose-response activity of the compound is observed"},
      {"measurement": "dose-response activity towards total area (sum of all areas measured)", "setting": "[1]; 19.5, 78.1 and 313 nM, 7 days", "result": "Dose-response activity of the compound is observed"},
      {"measurement": "areas of collagen", "setting": "[1]; [3]", "result": "Statistically significant increases"},
      {"measurement": "areas of new bone", "setting": "[1]; [3]", "result": "Statistically significant increases"},
      {"measurement": "areas of osteoblast", "setting": "[1]; [3]", "result": "Statistically significant increases"},
      {"measurement": "weight increases in calvarial skull explants", "setting": "[1]; FIG. 18", "result": "Weight increases"},
      {"measurement": "up-regulation of AP activity upon overexpression of DN-RUNX2", "setting": "[2]", "result": "overexpression of DN-RUNX2 significantly reduces the up-regulation of AP activity; also recorded: DN-RUNX2 interferes with induction of AP activity"}
    ]}
  ]
}
